The source of these data is PubChem BioAssay (NCI).

“And” between values parts separate entries of the source, which are not always exact repeats. Equal values may be shown once.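 Protocol summary: plate cells (96-well), add compound at 5 concentrations, incubate 48 h, interpolate endpoints linearly. GI50 = concentration required for 50% inhibition of growth. TGI: concentration producing complete growth inhibition.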

Among the test systems are A498 renal; ACHN renal; HCT-15 colon; MALME-3M melanoma; NCI/ADR-RES ovarian; PC-3 prostate; SF-295 CNS; SF-539 CNS; SK-MEL-28 melanoma; UO-31 renal.
Common to all, as to test: DTP human tumour cell line panel, 48 h

For `CC1(C)CC[C@]2(C(=O)N3CCOCC3)CC[C@]3(C)C(=CC[C@@H]4[C@@]5(C)C/C(=C/c6ccncc6)C(=O)C(C)(C)[C@@H]5CC[C@]43C)[C@@H]2C1`, the GI50 is 1.83 µM in the test with A498 renal; 2.2 µM in the test on ACHN renal; 0.939 µM in the test with HCT-15 colon; 1.57 µM in the test with MALME-3M melanoma; 2.5 µM in the test on NCI/ADR-RES ovarian; 0.375 µM in the test with PC-3 prostate. For the same compound, the GI50 with SF-295 CNS was 2.03 µM; in the test with SF-539 CNS it was 1.73 µM; in the test with SK-MEL-28 melanoma it was 1.84 µM; with UO-31 renal it was 0.893 µM. The TGI turned out to be 4.96 µM in the test on A498 renal; 21.7 µM in the test on ACHN renal; 11 µM in the test on HCT-15 colon; 4.59 µM with MALME-3M melanoma; 46.4 µM with NCI/ADR-RES ovarian; 46.1 µM in the test with PC-3 prostate. Moreover, the TGI amounted to 34.8 µM with SF-295 CNS, 3.7 µM in the test on SF-539 CNS, 5.41 µM in the test on SK-MEL-28 melanoma and 14.2 µM with UO-31 renal.
As for `CSC1(SC2=NCCN2)SC2(NCCN2)S1`, the TGI in the test on A498 renal was 27.9 µM; with ACHN renal, 33.2 µM; in the test on HCT-15 colon, 41.2 µM; in the test with MALME-3M melanoma, 34.3 µM; in the test on NCI/ADR-RES ovarian, over 91.6 µM; with PC-3 prostate, 34.3 µM. Besides, the TGI in the test with SF-295 CNS is 67.6 µM; in the test on SF-539 CNS, 56.5 µM; with SK-MEL-28 melanoma it was 40.1 µM; in the test on UO-31 renal it was 32.2 µM.
For `OCC1OC(n2cnc3c(=S)nc[nH]c32)C(O)C1O` (centres undefined), the GI50 in the test with A498 renal is 19.8 µM; in the test on ACHN renal, 4.87 µM; in the test on HCT-15 colon it was 6.62 µM; with MALME-3M melanoma it was over 30 µM; with NCI/ADR-RES ovarian it was 3.52 µM; with PC-3 prostate it was 6.71 µM. Besides, the GI50 was 3.49 µM with SF-295 CNS, 3.3 µM in the test on SF-539 CNS and over 62.5 µM in the test on SK-MEL-28 melanoma. Besides, the TGI in the test on A498 renal is over 2380 µM; with ACHN renal, over 2500 µM; with HCT-15 colon it was over 2500 µM; with MALME-3M melanoma it was 2480 µM and > 100 µM; with NCI/ADR-RES ovarian, over 2500 µM; with PC-3 prostate it was over 2500 µM. Besides, the TGI in the test with SF-295 CNS, with SF-539 CNS, in the test with SK-MEL-28 melanoma and in the test with UO-31 renal was over 2500 µM in each case.
In the case of `COc1cc(C2C3=C(COC3=O)Nc3cc4c(cc32)CCC4)cc2c1OCO2` (centres undefined), the GI50 with A498 renal is 0.025 µM; with ACHN renal, 0.114 µM; in the test on HCT-15 colon, 0.0728 µM; with MALME-3M melanoma, 19.1 µM; in the test with NCI/ADR-RES ovarian, 0.0345 µM; in the test with PC-3 prostate, 0.049 µM. Also, the GI50 was 0.0308 µM in the test on SF-295 CNS, 0.0328 µM in the test with SF-539 CNS, 0.0691 µM in the test with SK-MEL-28 melanoma and 1.05 µM in the test with UO-31 renal. For the same compound, the TGI is 0.0964 µM in the test on A498 renal; 21.4 µM in the test on ACHN renal; over 62.1 µM in the test with HCT-15 colon; 74.6 µM in the test with MALME-3M melanoma; 0.881 µM in the test on NCI/ADR-RES ovarian; 18.2 µM in the test on PC-3 prostate. Further, the TGI in the test with SF-295 CNS came out at 10.8 µM; in the test with SF-539 CNS, 8.73 µM; in the test with SK-MEL-28 melanoma, 24.4 µM; in the test on UO-31 renal it was 26.5 µM.
As for `O=C(COc1cccc(/C=C2\COc3ccc(Cl)cc3C2=O)c1)c1ccc(Cl)cc1`, the GI50 in the test with A498 renal is 13.8 µM; in the test on ACHN renal, 15.4 µM; in the test with HCT-15 colon, 12.2 µM; in the test with MALME-3M melanoma, 17.9 µM; in the test on NCI/ADR-RES ovarian, 20.5 µM; in the test with PC-3 prostate it was 12.4 µM. Besides, the GI50 was 24.9 µM in the test on SF-295 CNS, 15.4 µM in the test with SF-539 CNS, 18.3 µM in the test with SK-MEL-28 melanoma and 5.13 µM with UO-31 renal. The TGI in the test with A498 renal came to 27.1 µM; with ACHN renal, 29.4 µM; in the test on HCT-15 colon, 24.7 µM; in the test on MALME-3M melanoma, 34.2 µM; with NCI/ADR-RES ovarian, 69.6 µM; in the test on PC-3 prostate, 28.9 µM. Besides, the TGI with SF-295 CNS was found to be 39.6 µM; with SF-539 CNS it was 28.7 µM; in the test with SK-MEL-28 melanoma, 32.2 µM; in the test on UO-31 renal it was 19.4 µM.
`O=C(CN1CCN(c2ccccc2)CC1)N1CCN(c2nnc(-c3ccc(Cl)cc3)c(-c3ccc(Cl)cc3)n2)CC1`: the GI50 in the test on A498 renal is 9.67 µM; in the test with ACHN renal, 5.59 µM; in the test on HCT-15 colon it was 6.35 µM; in the test on MALME-3M melanoma, 9.35 µM; in the test on NCI/ADR-RES ovarian, 8.05 µM; in the test with PC-3 prostate it was 7.44 µM. In addition, the GI50 in the test on SF-295 CNS is 36 µM; with SF-539 CNS it was 5.91 µM; with SK-MEL-28 melanoma it was 56.2 µM; in the test on UO-31 renal it was 2.04 µM. In addition, the TGI was 78 µM in the test on A498 renal; over 100 µM in the test with ACHN renal; over 100 µM in the test with HCT-15 colon; over 100 µM in the test with MALME-3M melanoma; over 100 µM in the test with NCI/ADR-RES ovarian; over 100 µM with PC-3 prostate. The TGI with SF-295 CNS, in the test on SF-539 CNS, in the test with SK-MEL-28 melanoma and with UO-31 renal was over 100 µM each time.
For the compound `CC(C)c1ccc(Nc2nccc(-c3cnn4ncccc34)n2)cc1`, the GI50 in the test with A498 renal was 0.542 µM; with ACHN renal, 0.189 µM; in the test with HCT-15 colon it was 0.614 µM; in the test on MALME-3M melanoma, 1.04 µM; in the test on NCI/ADR-RES ovarian it was 0.584 µM; in the test with PC-3 prostate it was 0.615 µM. Also, the GI50 was 0.523 µM with SF-295 CNS, 0.481 µM in the test on SF-539 CNS, 0.422 µM in the test with SK-MEL-28 melanoma and 0.804 µM in the test with UO-31 renal. Besides, the TGI was 1.48 µM in the test on A498 renal; over 10.3 µM in the test with ACHN renal; over 25 µM with HCT-15 colon; 4.01 µM with MALME-3M melanoma; 5.27 µM with NCI/ADR-RES ovarian; over 12.3 µM in the test with PC-3 prostate. Besides, the total growth inhibition concentration (TGI) in the test with SF-295 CNS is 12.2 µM; in the test on SF-539 CNS, 1.68 µM; in the test on SK-MEL-28 melanoma, 1.6 µM; in the test on UO-31 renal it was over 9.35 µM.
